Reference: ChEMBL document CHEMBL5131478, “3,5-Bis(trifluoromethyl)phenylsulfonamides, a novel pancreatic cancer active lead. Investigation of the terminal aromatic moiety” (Bioorg Med Chem Lett, 2022)

System: DU-145
Experiment: Growth inhibition of human DU-145 cells incubated for 72 hrs by MTT assay
Format: functional
Details: not given

| GI50 | Compound |
| --- | --- |
| 2700 nM | CC(C)(C)c1ccc(CNCCCNS(=O)(=O)c2cc(C(F)(F)F)cc(C(F)(F)F)c2)cc1 |
| 2700 nM | O=S(=O)(NCCCNCc1ccc(-c2ccccc2)cc1)c1cc(C(F)(F)F)cc(C(F)(F)F)c1 |
| 2600 nM | O=S(=O)(NCCCNCc1ccc(Br)cc1)c1cc(C(F)(F)F)cc(C(F)(F)F)c1 |
| 16000 nM | CC(C)(C)c1ccc(CNCCNS(=O)(=O)c2cc(C(F)(F)F)cc(C(F)(F)F)c2)cc1 |

System: NCI-H460
Experiment: Growth inhibition of human NCI-H460 cells incubated for 72 hrs by MTT assay
Format: functional
Details: not given

| GI50 | Compound |
| --- | --- |
| 2500 nM | CC(C)(C)c1ccc(CNCCCNS(=O)(=O)c2cc(C(F)(F)F)cc(C(F)(F)F)c2)cc1 |
| 2500 nM | O=S(=O)(NCCCNCc1ccc(-c2ccccc2)cc1)c1cc(C(F)(F)F)cc(C(F)(F)F)c1 |
| 2500 nM | O=S(=O)(NCCCNCc1ccc(Br)cc1)c1cc(C(F)(F)F)cc(C(F)(F)F)c1 |
| 14000 nM | CC(C)(C)c1ccc(CNCCNS(=O)(=O)c2cc(C(F)(F)F)cc(C(F)(F)F)c2)cc1 |

System: MCF7
Experiment: Growth inhibition of human MCF7 cells incubated for 72 hrs by MTT assay
Format: functional
Details: not given

| GI50 | Compound |
| --- | --- |
| 2100 nM | CC(C)(C)c1ccc(CNCCCNS(=O)(=O)c2cc(C(F)(F)F)cc(C(F)(F)F)c2)cc1 |
| 1700 nM | O=S(=O)(NCCCNCc1ccc(-c2ccccc2)cc1)c1cc(C(F)(F)F)cc(C(F)(F)F)c1 |
| 1900 nM | O=S(=O)(NCCCNCc1ccc(Br)cc1)c1cc(C(F)(F)F)cc(C(F)(F)F)c1 |
| 13000 nM | CC(C)(C)c1ccc(CNCCNS(=O)(=O)c2cc(C(F)(F)F)cc(C(F)(F)F)c2)cc1 |

System: HT-29
Experiment: Growth inhibition of human HT-29 cells incubated for 72 hrs by MTT assay
Format: functional
Details: not given

| GI50 | Compound |
| --- | --- |
| 2000 nM | CC(C)(C)c1ccc(CNCCCNS(=O)(=O)c2cc(C(F)(F)F)cc(C(F)(F)F)c2)cc1 |
| 2300 nM | O=S(=O)(NCCCNCc1ccc(-c2ccccc2)cc1)c1cc(C(F)(F)F)cc(C(F)(F)F)c1 |
| 2200 nM | O=S(=O)(NCCCNCc1ccc(Br)cc1)c1cc(C(F)(F)F)cc(C(F)(F)F)c1 |
| 14000 nM | CC(C)(C)c1ccc(CNCCNS(=O)(=O)c2cc(C(F)(F)F)cc(C(F)(F)F)c2)cc1 |

System: A-431
Experiment: Growth inhibition of human A-431 cells incubated for 72 hrs by MTT assay
Format: functional
Details: not given

| GI50 | Compound |
| --- | --- |
| 2800 nM | CC(C)(C)c1ccc(CNCCCNS(=O)(=O)c2cc(C(F)(F)F)cc(C(F)(F)F)c2)cc1 |
| 2600 nM | O=S(=O)(NCCCNCc1ccc(-c2ccccc2)cc1)c1cc(C(F)(F)F)cc(C(F)(F)F)c1 |
| 2500 nM | O=S(=O)(NCCCNCc1ccc(Br)cc1)c1cc(C(F)(F)F)cc(C(F)(F)F)c1 |
| 16000 nM | CC(C)(C)c1ccc(CNCCNS(=O)(=O)c2cc(C(F)(F)F)cc(C(F)(F)F)c2)cc1 |

System: U-87 MG
Experiment: Growth inhibition of human U87 cells incubated for 72 hrs by MTT assay
Format: functional, U-87MG ATCC
Details: not given

| GI50 | Compound |
| --- | --- |
| 2300 nM | CC(C)(C)c1ccc(CNCCCNS(=O)(=O)c2cc(C(F)(F)F)cc(C(F)(F)F)c2)cc1 |
| 2200 nM | O=S(=O)(NCCCNCc1ccc(-c2ccccc2)cc1)c1cc(C(F)(F)F)cc(C(F)(F)F)c1 |
| 2100 nM | O=S(=O)(NCCCNCc1ccc(Br)cc1)c1cc(C(F)(F)F)cc(C(F)(F)F)c1 |
| 13000 nM | CC(C)(C)c1ccc(CNCCNS(=O)(=O)c2cc(C(F)(F)F)cc(C(F)(F)F)c2)cc1 |

System: MIA PaCa-2
Experiment: Growth inhibition of human MIA PaCa-2 cells incubated for 72 hrs by MTT assay
Format: functional
Details: not given

| GI50 | Compound |
| --- | --- |
| 2300 nM | CC(C)(C)c1ccc(CNCCCNS(=O)(=O)c2cc(C(F)(F)F)cc(C(F)(F)F)c2)cc1 |
| 2400 nM | O=S(=O)(NCCCNCc1ccc(-c2ccccc2)cc1)c1cc(C(F)(F)F)cc(C(F)(F)F)c1 |
| 2300 nM | O=S(=O)(NCCCNCc1ccc(Br)cc1)c1cc(C(F)(F)F)cc(C(F)(F)F)c1 |
| 15000 nM | CC(C)(C)c1ccc(CNCCNS(=O)(=O)c2cc(C(F)(F)F)cc(C(F)(F)F)c2)cc1 |

System: BE(2)-C
Experiment: Growth inhibition of human BE2C cells incubated for 72 hrs by MTT assay
Format: functional
Details: not given

| Compound | GI50 |
| --- | --- |
| CC(C)(C)c1ccc(CNCCCNS(=O)(=O)c2cc(C(F)(F)F)cc(C(F)(F)F)c2)cc1 | 2500 nM |
| O=S(=O)(NCCCNCc1ccc(-c2ccccc2)cc1)c1cc(C(F)(F)F)cc(C(F)(F)F)c1 | 2600 nM |
| O=S(=O)(NCCCNCc1ccc(Br)cc1)c1cc(C(F)(F)F)cc(C(F)(F)F)c1 | 2700 nM |
| CC(C)(C)c1ccc(CNCCNS(=O)(=O)c2cc(C(F)(F)F)cc(C(F)(F)F)c2)cc1 | 14000 nM |

System: HPAC
Experiment: Growth inhibition of human HPAC cells incubated for 72 hrs by MTT assay
Format: functional
Details: not given

| Compound | GI50 |
| --- | --- |
| CC(C)(C)c1ccc(CNCCCNS(=O)(=O)c2cc(C(F)(F)F)cc(C(F)(F)F)c2)cc1 | 2300 nM |
| O=S(=O)(NCCCNCc1ccc(-c2ccccc2)cc1)c1cc(C(F)(F)F)cc(C(F)(F)F)c1 | 2700 nM |
| O=S(=O)(NCCCNCc1ccc(Br)cc1)c1cc(C(F)(F)F)cc(C(F)(F)F)c1 | 2900 nM |
| CC(C)(C)c1ccc(CNCCNS(=O)(=O)c2cc(C(F)(F)F)cc(C(F)(F)F)c2)cc1 | 14000 nM |

System: BXPC-3
Experiment: Growth inhibition of human BXPC-3 cells incubated for 72 hrs by MTT assay
Format: functional
Details: not given

| GI50 | Compound |
| --- | --- |
| 1400 nM | CC(C)(C)c1ccc(CNCCCNS(=O)(=O)c2cc(C(F)(F)F)cc(C(F)(F)F)c2)cc1 |
| 1700 nM | O=S(=O)(NCCCNCc1ccc(-c2ccccc2)cc1)c1cc(C(F)(F)F)cc(C(F)(F)F)c1 |
| 1500 nM | O=S(=O)(NCCCNCc1ccc(Br)cc1)c1cc(C(F)(F)F)cc(C(F)(F)F)c1 |
| 8800 nM | CC(C)(C)c1ccc(CNCCNS(=O)(=O)c2cc(C(F)(F)F)cc(C(F)(F)F)c2)cc1 |

System: not listed separately
Experiment: Growth inhibition of human MCF-10A cells incubated for 72 hrs by MTT assay
Format: toxicity, cell-based
Details: not given

| Compound | GI50 at 72 h |
| --- | --- |
| CC(C)(C)c1ccc(CNCCCNS(=O)(=O)c2cc(C(F)(F)F)cc(C(F)(F)F)c2)cc1 | 3200 nM |
| O=S(=O)(NCCCNCc1ccc(-c2ccccc2)cc1)c1cc(C(F)(F)F)cc(C(F)(F)F)c1 | 2800 nM |
| O=S(=O)(NCCCNCc1ccc(Br)cc1)c1cc(C(F)(F)F)cc(C(F)(F)F)c1 | 3100 nM |
| CC(C)(C)c1ccc(CNCCNS(=O)(=O)c2cc(C(F)(F)F)cc(C(F)(F)F)c2)cc1 | 14000 nM |

System: A2780
Experiment: Growth inhibition of human A2780 cells incubated for 72 hrs by MTT assay
Format: functional
Details: not given

| GI50 | Compound |
| --- | --- |
| 2900 nM | CC(C)(C)c1ccc(CNCCCNS(=O)(=O)c2cc(C(F)(F)F)cc(C(F)(F)F)c2)cc1 |
| 2600 nM | O=S(=O)(NCCCNCc1ccc(-c2ccccc2)cc1)c1cc(C(F)(F)F)cc(C(F)(F)F)c1 |
| 2600 nM | O=S(=O)(NCCCNCc1ccc(Br)cc1)c1cc(C(F)(F)F)cc(C(F)(F)F)c1 |
| 14000 nM | CC(C)(C)c1ccc(CNCCNS(=O)(=O)c2cc(C(F)(F)F)cc(C(F)(F)F)c2)cc1 |

System: ASPC1
Experiment: Growth inhibition of human ASPC1 cells incubated for 72 hrs by MTT assay
Format: functional
Details: not given

| GI50 | Compound |
| --- | --- |
| 2700 nM | CC(C)(C)c1ccc(CNCCCNS(=O)(=O)c2cc(C(F)(F)F)cc(C(F)(F)F)c2)cc1 |
| 2500 nM | O=S(=O)(NCCCNCc1ccc(-c2ccccc2)cc1)c1cc(C(F)(F)F)cc(C(F)(F)F)c1 |
| 2800 nM | O=S(=O)(NCCCNCc1ccc(Br)cc1)c1cc(C(F)(F)F)cc(C(F)(F)F)c1 |
| 14000 nM | CC(C)(C)c1ccc(CNCCNS(=O)(=O)c2cc(C(F)(F)F)cc(C(F)(F)F)c2)cc1 |

System: PANC-1
Experiment: Growth inhibition of human PANC-1 cells incubated for 72 hrs by MTT assay
Format: functional
Details: not given

| GI50 | Compound |
| --- | --- |
| 2500 nM | CC(C)(C)c1ccc(CNCCCNS(=O)(=O)c2cc(C(F)(F)F)cc(C(F)(F)F)c2)cc1 |
| 2500 nM | O=S(=O)(NCCCNCc1ccc(-c2ccccc2)cc1)c1cc(C(F)(F)F)cc(C(F)(F)F)c1 |
| 2200 nM | O=S(=O)(NCCCNCc1ccc(Br)cc1)c1cc(C(F)(F)F)cc(C(F)(F)F)c1 |
| 13000 nM | CC(C)(C)c1ccc(CNCCNS(=O)(=O)c2cc(C(F)(F)F)cc(C(F)(F)F)c2)cc1 |

System: Capan-2
Experiment: Growth inhibition of human Capan-2 cells incubated for 72 hrs by MTT assay
Format: functional
Details: not given

| Compound | GI50 |
| --- | --- |
| CC(C)(C)c1ccc(CNCCCNS(=O)(=O)c2cc(C(F)(F)F)cc(C(F)(F)F)c2)cc1 | 2100 nM |
| O=S(=O)(NCCCNCc1ccc(-c2ccccc2)cc1)c1cc(C(F)(F)F)cc(C(F)(F)F)c1 | 2200 nM |
| O=S(=O)(NCCCNCc1ccc(Br)cc1)c1cc(C(F)(F)F)cc(C(F)(F)F)c1 | 2000 nM |
| CC(C)(C)c1ccc(CNCCNS(=O)(=O)c2cc(C(F)(F)F)cc(C(F)(F)F)c2)cc1 | 13000 nM |

System: not listed separately
Experiment: Growth inhibition of human SJG2 cells incubated for 72 hrs by MTT assay
Format: functional
Details: SJ-G2

| Compound | GI50 |
| --- | --- |
| CC(C)(C)c1ccc(CNCCCNS(=O)(=O)c2cc(C(F)(F)F)cc(C(F)(F)F)c2)cc1 | 2400 nM |
| O=S(=O)(NCCCNCc1ccc(-c2ccccc2)cc1)c1cc(C(F)(F)F)cc(C(F)(F)F)c1 | 2300 nM |
| O=S(=O)(NCCCNCc1ccc(Br)cc1)c1cc(C(F)(F)F)cc(C(F)(F)F)c1 | 2400 nM |
| CC(C)(C)c1ccc(CNCCNS(=O)(=O)c2cc(C(F)(F)F)cc(C(F)(F)F)c2)cc1 | 14000 nM |
